Publication PMC9227305, “Photoinduced Synthesis of Methylated Marine Cyclopeptide Galaxamide Analogs with Isoindolinone as Anticancer Agents” (Marine Drugs, 2022)
pIC50: −log10 of the molar value. *1 amine or outer side, *2 acyl side, *3 side chain or, on linkers, in order; H or OH if unused. Where a SMILES comes first, the peptide text is derived from it. [ ]: non-standard residue; d: D form. X1 = O=C1c2ccccc2[C@@](O)(CN(Cc2ccccc2)[*:1])N1CC(=O)[*:2]; NMeL = CN[C@@H](CC(C)C)C(=O)O

Tests used:
HepG-2 cells = experiment: cells; conditions: compound 8 vs compound 4
From the text: (§1) The antitumor activity of the prepared cyclic peptides against human hepatocellular carcinoma cells (HepG-2), human cervical cancer cell lines (HeLa) and human breast cancer cells (MDA-MB-231) was examined by MMT assay, and the mouse fibroblast L929 cells were used as the model cells to evaluate the toxicity of cyclopeptides to normal cell lines. Due to the absence of an authentic standard, taxol was chosen as a control because it is a widely used chemotherapeutic drug for the treatment of various cancers, including liver cancer.
(§2) Samples were dissolved in DMSO and diluted into different concentrations ([…], 18.75, 25, 37.5, 50, 75, 100 and 250 μM) and stored at 4 °C. Cells in the logarithmic growth phase were digested with trypsin and then seeded in 96-well plates at a density of 2 × 10^4 cells/well in 100 μL of culture medium. The cells were treated with different concentrations of the tested compound, and a blank control group without the drug was also set up. Six wells were repeated for each dose. After 48 h of co-incubation, MTT solution (100 μL, 0.5 mg/mL) was added, followed by incubation for another 4 h. After discarding the supernatant, 100 μL of DMSO was added per well, and the absorbance (OD) values were measured at 490 nm using an enzyme marker. Cell viability was calculated by the formula: Cell viability (%) = As/Ab × 100% (where As is the absorbance value of the experimental group and Ab is the absorbance value of the blank group). The obtained data were processed using SPSS19 software to obtain IC50 values.

L929 cells = experiment: cells; conditions: 48 h
From the text: as §1, §2

p53 = experiment: Western blot of p53 level; type: cell-based, human; conditions: HepG-2 cells, 48 h, increasing drug concentration
From the text: The p53 tumor suppressor plays a key role in preventing tumor development. In cancers retaining wild-type p53, the function of p53 can be suppressed by a variety of factors, and the murine double minute 2 (MDM2) protein is an important endogenous cellular inhibitor of p53 [29]. Therefore, inhibiting or blocking MDM2 protein should be an efficient strategy for the development of an antitumor agent. Actually, various MDM2 inhibitors have been studied and screened in recent years, including small molecules and polypeptides. […] Considering that the isoindolinone fragment is always present in the structure of MDM2 inhibitors and plays an important role in binding to the target protein, we tried to detect the MDM2 and p53 protein levels by Western blotting to assess the inhibiting ability of cyclic peptides containing isoindolinone fragments to MDM2 oncoprotein.
HepG-2 cells (5 × 10^6 cells) in the medium were treated with different concentrations of compounds for the required time and were washed twice with ice-cold PBS. The cells were scraped into cell lysate buffer containing phenylmethanesulfonyl fluoride (PMSF) and transferred to a 1.5 mL centrifuge tube, then lysed for 20 min at 4 °C. After centrifuging (12,000 r/min) for 20 min, the supernatant was collected and measured using the BCA Protein Assay Kit (Beyotime Biotechnology Co. Ltd., Shanghai, China)). […]

Q: How did the “antitumor activity relative to compound 4” value (HepG-2 cells) turn out when `CC(C)C[C@@H]1NC(=O)CN2C(=O)c3ccccc3[C@@]2(O)CN(Cc2ccccc2)C(=O)[C@H](CC(C)C)NC(=O)[C@H](CC(C)C)N(C)C(=O)[C@H](CC(C)C)NC(=O)[C@H](CC(C)C)NC1=O` [Compound 8, 3-Hydroxy-isoindolinone-cyclo-Gly-Leu-N-Me-Leu-Leu-Leu-Leu] (cyclo(LL[NMeL]L[X1]L)) was run?
A: eight times stronger

Q: And the pIC50 (L929 cells)?
A: < 3.40

Q: And the p53 protein expression (p53)?
A: increase
